Source: article PMC7280029, “Development of FRET‐based high‐throughput screening for viral RNase III inhibitors” (Molecular Plant Pathology, 2020)

What was measured:
[1] = target: CSR3 (class 1 RNase III of Sweet potato chlorotic stunt virus) (Sweet potato chlorotic stunt virus, UniProt Q8JJW8); experiment: biochemical; assay type: biochemical; conditions: for DSS (drug-sensitivity score): dose-response 1.25 nM to 50 µM, Breeze software
Procedure: A dose–response assay was carried out with the top 109 compounds (concentration range 1.25 nM to 50 µM). The data were analysed with Breeze software, which generates dose–response curves and calculates the half‐maximal inhibitory concentration (IC50) and drug‐sensitivity score (DSS) for every compound. Considering that IC50 alone cannot comprehensively evaluate the drug sensitivity of the dose–response model in HTS assay, DSS was developed by Yadav et al. (2014) as a systematic algorithmic solution that integrated five factors: IC50, the slope at IC50, minimum activity level, and top and bottom asymptotes of dose–response model. The DSS values ranged from 0 to 19.2. The three structures differ (Figure 6, starred compounds). […] Table S1 lists the 109 compounds from the dose–response screens for CSR3, including information for compound identity, IC50, DSS, and dose–response curves.
For the HTS assay, plates (10 µM compound in each well) were prepared with an Echo liquid handler (Labcyte) at the FIMM (Institute for Molecular Medicine Finland) High‐Throughput Biomedicine unit. CSR3 and annealed siRNA were diluted to […] and 750 nM, respectively, in reaction buffer (50 mM Tris‐HCl, 125 mM NaCl, 25 mM MgCl2, pH 8.0). CSR3 solutions were dispensed into the wells of plates (10 µl CSR3 per well). Plates were incubated at room temperature for 15 min with shaking (450 rpm). Subsequently, 10 µl substrate was dispensed per well. […] The dose–response assay with six compound concentrations (range, 1.25 nM to 50 µM) was carried out with the same conditions. Plates were sealed, centrifuged briefly, and then, immediately analysed with a PHERAstar FS (BMG Labtech) with a fluorescence‐intensity optic module (excitation at 485 ± 6 nm, detection at 520 ± 5 nm) for 12 cycles (c.17 min total) at 37 °C. All dispensing was done using the BioTek MultiFlo FX. All screening plates contained positive‐control wells (lacking CSR3) and negative‐control wells (25 nl dimethyl sulphoxide, vehicle), which were used as standards to calculate the PI of compounds.
The PI of each compound for CSR3 was calculated according to Equation 2. A PI threshold of 30% was used as the cut‐off value for one concentration of HTS. Furthermore, the dose–response curves of PI in function of compound concentration were evaluated with DSS according to Yadav et al. (2014).(2) PI=1001-Ss-Sc+/SC--Sc+% where Sc + is the mean of the slope of the positive control, Sc − is the mean of the slope of the negative control, and Ss is the mean of the slope of samples.

[2] = test system: human heat shock 70 kDa protein; parameters: method as in PubChem database; conditions: ref PubChem database; cited from earlier work
[3] = test system: HIV-1 reverse transcriptase; parameters: method as in PubChem database; conditions: ref PubChem database; cited from earlier work
CSR3 = CSR3 kinetics with labelled siRNA substrate (Michaelis-Menten); assay type: biochemical, Sweet potato chlorotic stunt virus; conditions: 50 nM CSR3, 50-800 nM labelled siRNA
Procedure: To monitor the kinetics of CSR3 endoribonuclease activity, two‐fold dilutions (yielding 50–800 nM) of the labelled siRNA substrate were tested with 50 nM CSR3. As expected, start points of raw fluorescence increased with the FRET‐siRNA concentration (Figure 4a). Moreover, the slope of the raw fluorescence between all neighbouring detection cycles was calculated for all cycle numbers. […] Finally, the maximal slope for every labelled siRNA concentration was used to determine the catalytic rate of CSR3.
The HTS assay was designed to maximize siRNA cleavage by CSR3. We used a donor–quencher fluorogenic siRNA as the substrate for CSR3. […] To assess CSR3 activity, five labelled siRNA concentrations (50–800 nM) were used with 50 nM CSR3. To test the reproducibility and precision of the assay, full plates containing only negative (50 nM CSR3) and positive reactions (lacking CSR3) were tested with 375 nM labelled siRNA. […]
The kinetic constant (K d) for CSR3 was calculated using the three‐parameter Michaelis–Menten model (MM.3) included in the R package dcr (Ritz et al., 2015). The statistical significance of differences between values was assessed with one‐way ANOVA using the aov function in the R package.

[4] = test system: Cytokine/receptor Binary Complex of humans (4KC3_B); parameters: method as in PubChem database; conditions: ref PubChem database; cited from earlier work

CSR3 (class 1 RNase III of Sweet potato chlorotic stunt virus), sequence (Q8JJW8 entry or part of it): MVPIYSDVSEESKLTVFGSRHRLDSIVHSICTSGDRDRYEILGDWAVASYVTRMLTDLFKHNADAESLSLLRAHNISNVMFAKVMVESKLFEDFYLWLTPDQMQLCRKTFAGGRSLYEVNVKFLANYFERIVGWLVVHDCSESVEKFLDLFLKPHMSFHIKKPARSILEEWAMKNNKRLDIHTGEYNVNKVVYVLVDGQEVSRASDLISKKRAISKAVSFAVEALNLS

Compound | IC50 [1] | DSS (drug-sensitivity score) [1] | also measured
CN1C(=O)C(=CNc2ccc(F)cc2)C(=O)N(C)C1=O [FIMM059523] | > 50000 nM | 0 | 
CN1CCc2cccc3c2[C@H]1Cc1ccc(O)c(O)c1-3 [FIMM000096] | 2900 nM | 12.7 | 
O=C(O)c1ccc(C2Nc3c(Br)cccc3C3C=CCC32)cc1 (stereo not drawn) [FIMM022230] | 1860 nM | 13.8 | 
CCn1c(C)nc2cc(S(N)(=O)=O)ccc21 [FIMM028155] | 782 nM | 17.6 | 
Cc1ccc(C)c(C(=O)CSc2nnc[nH]2)c1 [FIMM027745] | 647 nM | 19.2 | activity in inhibitor screen [2]: inactive; activity in inhibitor screen [3]: inactive
O=S(=O)(O)c1cccc2cc(O)ccc12 [FIMM072577] | 699 nM | 18.3 | 
O=C1c2c(O)ccc(O)c2C(=O)c2c(NCCNCCO)ccc(NCCNCCO)c21 [FIMM000490] | 1810 nM | 14.9 | 
CC(C)(C)C1CCc2c(sc(NC(=O)C3CC=CCC3C(=O)O)c2C(N)=O)C1 (stereo not drawn) [FIMM104970] |  | 0 | 
labelled siRNA: 22 bp siRNA with two-nucleotide 3' overhang, FAM reporter and BHQ1 quencher on the sense strand; CSR3 substrate (sense CGUAGUGGAAGUGGGAGAGGTC; antisense CCUCUCCCACUUCCACUACGTG; FAM reporter and BHQ1 quencher on sense strand, positions not given here) |  |  | Km (CSR3; Michaelis-Menten model MM.3): 0.229 µM; Vmax (CSR3; maximal slope): 22.47
c1cnc2[nH]c(Nc3ccc(Nc4nc5cccnc5[nH]4)cc3)nc2c1 [FIMM092170] | 2840 nM | 12.9 | 
COc1cc(C=C2C(=O)NC(=S)NC2=O)ccc1OCc1ccccc1[N+](=O)[O-] [FIMM101864] | 3850 nM | 11.2 | 
Cc1ccc([C@@H]2Nc3ccc(C(=O)O)cc3[C@@H]3C=CC[C@@H]32)cc1 [FIMM031755] | 1270 nM |  | activity in inhibitor screening assay [4]: effective at micromolar concentrations
CCn1c(S)nnc1CCNC(=O)c1cccs1 [FIMM099662] | 3070 nM | 11.7 | 
